Results on 16 compounds are retold here after US9796711B2, “Substituted pyrazolo[3,4-b]pyridin-6-carboxylic acids and method of use” (AbbVie S.àr.l., priority 2015, dated 2017).

In experiment [1] the target is T1, ΔF508-CFTR (Homo sapiens, UniProt P13569, DEL508-508).
T1 construct: host or cells: CFBE41o-, doxycycline-inducible
As to the kind of experiment: CFTR cell surface levels using HRP-tagged ΔF508-CFTR expressing CFBE cells, in the presence of a co-corrector. Type of experiment: cell-based. The settings on record: HRP-tagged ΔF508-CFTR expressing CFBE cells, in the presence of 3 μM co-corrector; for EC50: read-out: EC50. In short, it runs like this:
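Cells were seeded with 0.5 μg/mL doxycycline and held 68 h at 37 °C. Test compounds plus 3 μM co-corrector (final 0.1% DMSO) were then added for 20 h at 33 °C. Washed cells received HRP substrate, and luminescence was normalized between DMSO and 3 μM co-corrector controls.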

The target of experiment [2] is T1, ΔF508-CFTR. Briefly: CFTR cell surface levels using HRP-tagged ΔF508-CFTR expressing CFBE cells, intrinsic corrector capacity. Type of experiment: cell-based. The following applies: for EC50: read-out: EC50. Summed up:
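Here the cells express ΔF508-CFTR with horseradish peroxidase inserted in extracellular loop 4, so only rescued channel at the surface gives luminescent signal. Compounds act on their own, 20 h at the reduced temperature of 33 °C; values are percent activity relative to DMSO and a 3 μM corrector.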

[3] abbreviates: HRP-tagged ΔF508-CFTR expressing CFBE cells, intrinsic corrector capacity (no co-corrector), 33° C., 20 hours.
[4] abbreviates: HRP-tagged ΔF508-CFTR CFBE41o- cells, compounds alone (intrinsic corrector capacity), 20 hours at 33° C., positive control 3 μM corrector.
Setting [5] is: HRP-tagged ΔF508-CFTR CFBE41o- cells, compounds alone (intrinsic corrector capacity), 20 hours at 33° C.

T1 sequence (P13569 with tags, fused parts or gaps DEL508-508): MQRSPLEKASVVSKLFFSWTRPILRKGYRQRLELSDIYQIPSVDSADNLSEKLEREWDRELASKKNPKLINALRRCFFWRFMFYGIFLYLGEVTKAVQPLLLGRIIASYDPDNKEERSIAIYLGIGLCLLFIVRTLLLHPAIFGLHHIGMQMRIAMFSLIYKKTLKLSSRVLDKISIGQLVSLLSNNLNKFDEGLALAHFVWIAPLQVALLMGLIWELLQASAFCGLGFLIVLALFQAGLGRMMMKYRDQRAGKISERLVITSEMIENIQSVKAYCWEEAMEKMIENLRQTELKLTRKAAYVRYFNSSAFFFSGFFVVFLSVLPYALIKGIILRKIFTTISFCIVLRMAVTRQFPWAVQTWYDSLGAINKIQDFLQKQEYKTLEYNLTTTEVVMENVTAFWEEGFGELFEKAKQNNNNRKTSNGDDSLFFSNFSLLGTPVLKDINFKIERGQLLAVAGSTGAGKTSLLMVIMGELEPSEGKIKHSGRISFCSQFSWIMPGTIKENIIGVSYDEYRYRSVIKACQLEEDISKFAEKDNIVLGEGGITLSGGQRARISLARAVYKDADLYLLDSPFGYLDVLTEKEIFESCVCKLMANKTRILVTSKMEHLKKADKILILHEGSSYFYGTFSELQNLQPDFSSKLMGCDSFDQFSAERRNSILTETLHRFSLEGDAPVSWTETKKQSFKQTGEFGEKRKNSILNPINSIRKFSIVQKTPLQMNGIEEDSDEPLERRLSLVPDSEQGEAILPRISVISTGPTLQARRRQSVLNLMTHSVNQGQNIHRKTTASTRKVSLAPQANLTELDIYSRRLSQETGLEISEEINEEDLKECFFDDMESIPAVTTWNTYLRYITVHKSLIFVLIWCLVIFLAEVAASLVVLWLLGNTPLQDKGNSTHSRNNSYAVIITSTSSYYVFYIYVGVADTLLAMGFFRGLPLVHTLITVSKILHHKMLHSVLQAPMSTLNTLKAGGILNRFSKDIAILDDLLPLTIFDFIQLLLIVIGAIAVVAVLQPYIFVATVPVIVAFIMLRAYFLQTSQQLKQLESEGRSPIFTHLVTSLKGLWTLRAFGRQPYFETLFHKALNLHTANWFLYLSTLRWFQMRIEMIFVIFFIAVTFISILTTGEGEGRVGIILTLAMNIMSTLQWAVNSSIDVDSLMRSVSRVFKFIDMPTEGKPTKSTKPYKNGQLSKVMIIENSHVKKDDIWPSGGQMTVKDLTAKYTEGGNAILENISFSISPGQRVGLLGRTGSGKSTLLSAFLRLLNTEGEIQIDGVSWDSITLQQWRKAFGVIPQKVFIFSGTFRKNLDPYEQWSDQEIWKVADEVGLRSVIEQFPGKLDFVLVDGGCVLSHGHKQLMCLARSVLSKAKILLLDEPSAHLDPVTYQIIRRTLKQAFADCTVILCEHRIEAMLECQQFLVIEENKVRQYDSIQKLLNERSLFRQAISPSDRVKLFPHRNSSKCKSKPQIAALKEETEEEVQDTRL

Turning to `COCC1CCN(Cc2cc(C(=O)O)nc3c2c(C2CCC2)nn3-c2ccc(F)cc2)CC1` [compound 859, 3-cyclobutyl-1-(4-fluorophenyl)-4-{[4-(methoxymethyl)piperidin-1-yl]methyl}-1H-pyrazolo[3,4-b]pyridine-6-carboxylic acid], the “% Activation” value in experiment [1] was 291.4%; in experiment [2] (setting [3]) it was 89.07%. In addition, the EC50 in experiment [1] is 2560 nM; in experiment [2] (setting [3]), 2230 nM.

Turning to `CC(C)c1nn(C2CCCCC2)c2nc(C(=O)O)cc(-c3cnn(C(C)C)c3)c12` [compound 361, 1-cyclohexyl-3-(propan-2-yl)-4-[1-(propan-2-yl)-1H-pyrazol-4-yl]-1H-pyrazolo[3,4-b]pyridine-6-carboxylic acid], the “% Activation” value in experiment [1] was 227.65%; in experiment [2] (setting [4]), 80.015%. Also, the EC50 in experiment [1] was found to be 1160 nM; in experiment [2] (setting [5]), 1540 nM.

With `CC1(F)CN(c2cc(C(=O)O)nc3c2c(C2CCC2)nn3-c2ccccc2)C1` [compound 451, 3-cyclobutyl-4-(3-fluoro-3-methylazetidin-1-yl)-1-phenyl-1H-pyrazolo[3,4-b]pyridine-6-carboxylic acid], in experiment [1], the “% Activation” value is listed as 234.95% and the EC50 was determined as 874 nM. Further, in experiment [2] (setting [3]), the “% Activation” value turned out to be 71.425% and the EC50 came to 1290 nM.

With `N#CCN1CC(c2nn(-c3ccccc3)c3nc(C(=O)O)cc(-c4ccc(N5CCOCC5)cc4)c23)C1` [compound 148, 3-[1-(cyanomethyl)azetidin-3-yl]-4-[4-(morpholin-4-yl)phenyl]-1-phenyl-1H-pyrazolo[3,4-b]pyridine-6-carboxylic acid], the entries for the “% Activation” value in experiment [1] and in experiment [2] (setting [4]) were 238.75% and 79.64%, respectively. Moreover, the EC50 in experiment [1] and in experiment [2] (setting [5]) was 3340 nM throughout.

As for `Cc1nn(-c2ccccc2)c2nc(C(=O)O)cc(N3CCC(N4CCOCC4)CC3)c12` [compound 324, 3-methyl-4-[4-(morpholin-4-yl)piperidin-1-yl]-1-phenyl-1H-pyrazolo[3,4-b]pyridine-6-carboxylic acid], the “% Activation” value in experiment [1] is given as 279.1%; in experiment [2] (setting [4]) it was 93.32%. Besides, the EC50 in experiment [1] and in experiment [2] (setting [5]) was 2510 nM each time.

With `CC(C)c1nn(-c2cc(Cl)ccn2)c2nc(C(=O)O)cc(-c3ccc(N4CCOCC4)cc3)c12` [compound 229, 1-(4-chloropyridin-2-yl)-4-[4-(morpholin-4-yl)phenyl]-3-(propan-2-yl)-1H-pyrazolo[3,4-b]pyridine-6-carboxylic acid], the “% Activation” value stood at 298% in experiment [1] and 130.65% in experiment [2] (setting [4]). For the same compound, the values for the EC50 in experiment [1] and in experiment [2] (setting [5]) were 1560 nM and 2150 nM, respectively.

For `CC(C)(C)OC(=O)N1CCC(Oc2nn(-c3ccccc3)c3nc(C(=O)O)cc(-c4ccc(N5CCC(C#N)CC5)nc4)c23)CC1` [compound 553, 3-{[1-(tert-butoxycarbonyl)piperidin-4-yl]oxy}-4-[6-(4-cyanopiperidin-1-yl)pyridin-3-yl]-1-phenyl-1H-pyrazolo[3,4-b]pyridine-6-carboxylic acid], in experiment [1], the “% Activation” value amounted to 419.05% and the EC50 stood at 119 nM. Moreover, in experiment [2] (setting [3]), the “% Activation” value stood at 189.7% and the EC50 stood at 370 nM.

`Cc1cccc(-n2nc(C(C)C)c3c(N4CC5(CCOCC5)C4)cc(C(=O)O)nc32)c1` [compound 258, 1-(3-methylphenyl)-4-(7-oxa-2-azaspiro[3.5]nonan-2-yl)-3-(propan-2-yl)-1H-pyrazolo[3,4-b]pyridine-6-carboxylic acid]: the “% Activation” value stood at 364.3% in experiment [1] and 169.7% in experiment [2] (setting [4]). The EC50 amounted to 919 nM in experiment [1] and 1290 nM in experiment [2] (setting [5]).

On to `Cc1nn(-c2ccccc2)c2nc(C(=O)O)cc(-c3ccc(N4C[C@@H](O)[C@H](O)C4)cc3)c12` [compound 116, 4-{4-[(3R,4R)-3,4-dihydroxypyrrolidin-1-yl]phenyl}-3-methyl-1-phenyl-1H-pyrazolo[3,4-b]pyridine-6-carboxylic acid], for which the results for the “% Activation” value in experiment [1] and in experiment [2] (setting [4]) were 262.7% and 81.72%, respectively. Besides, the EC50 in experiment [1] and in experiment [2] (setting [5]) was 3340 nM each time.

For the compound `CCCN1CCCN(c2cc(C(=O)O)nc3c2c(C(C)C)nn3-c2ccc(F)cc2)CC1` [compound 766, 1-(4-fluorophenyl)-3-(propan-2-yl)-4-(4-propyl-1,4-diazepan-1-yl)-1H-pyrazolo[3,4-b]pyridine-6-carboxylic acid], in experiment [1], the “% Activation” value is on record as 213.4% and the concentration giving a half-maximal response (EC50) was found to be 1180 nM. Moreover, in experiment [2] (setting [3]), the “% Activation” value is 54.3% and the EC50 was found to be 1670 nM.

Regarding `CN1CCN(Cc2cc(C(=O)O)nc3c2c(C2CCC2)nn3-c2ccc(F)cc2)CC1` [compound 858, 3-cyclobutyl-1-(4-fluorophenyl)-4-[(4-methylpiperazin-1-yl)methyl]-1H-pyrazolo[3,4-b]pyridine-6-carboxylic acid], the figures for the “% Activation” value in experiment [1] and in experiment [2] (setting [3]) were 168.6% and 29.24%, respectively. The EC50 in experiment [1] is 3180 nM.

For `O=C(O)c1cc(OCC2CCC(F)(F)C2)c2c(C3CCC3)nn(-c3ccccc3)c2n1` (stereo not drawn) [compound 435, 3-cyclobutyl-4-[(3,3-difluorocyclopentyl)methoxy]-1-phenyl-1H-pyrazolo[3,4-b]pyridine-6-carboxylic acid], the “% Activation” value in experiment [1] is 290.05%; in experiment [2] (setting [3]), 116.7%. For the same compound, the results for the EC50 in experiment [1] and in experiment [2] (setting [3]) were 453 nM and 773 nM, respectively.

Take `Cc1nn(-c2ccccc2)c2nc(C(=O)O)cc(N3CCC4(CCNC4=O)C3)c12` (stereo not drawn) [compound 313, 3-methyl-4-(6-oxo-2,7-diazaspiro[4.4]nonan-2-yl)-1-phenyl-1H-pyrazolo[3,4-b]pyridine-6-carboxylic acid]: the “% Activation” value in experiment [1] is 132.2%; in experiment [2] (setting [4]), 11.239%. The concentration giving a half-maximal response (EC50) in experiment [1] and in experiment [2] (setting [5]) was 7500 nM throughout.

In the case of `CC(C)c1nn(-c2ccc(F)cc2)c2nc(C(=O)O)cc(N3CC(N4CCCC4)C3)c12` [compound 794, 1-(4-fluorophenyl)-3-(propan-2-yl)-4-[3-(pyrrolidin-1-yl)azetidin-1-yl]-1H-pyrazolo[3,4-b]pyridine-6-carboxylic acid], in experiment [1], the “% Activation” value is 168.7% and the EC50 was found to be 788 nM. In addition, in experiment [2] (setting [3]), the “% Activation” value is given as 58.82% and the EC50 came to 1670 nM.

For `Cc1nn(-c2ccccc2)c2nc(C(=O)O)cc(OCC3CCCC3(F)F)c12` (stereo not drawn) [compound 389, 4-[(2,2-difluorocyclopentyl)methoxy]-3-methyl-1-phenyl-1H-pyrazolo[3,4-b]pyridine-6-carboxylic acid], the “% Activation” value in experiment [1] amounted to 280.6%; in experiment [2] (setting [4]), 101.73%. The EC50 turned out to be 1290 nM in experiment [1] and 1670 nM in experiment [2] (setting [5]).

Regarding `CCN(CC)C(=O)C1CCCN(c2cc(C(=O)O)nc3c2c(C2CCC2)nn3-c2ccccc2)C1` (stereo not drawn) [compound 500, 3-cyclobutyl-4-[3-(diethylcarbamoyl)piperidin-1-yl]-1-phenyl-1H-pyrazolo[3,4-b]pyridine-6-carboxylic acid], in experiment [1], the “% Activation” value was 289% and the EC50 turned out to be 296 nM. Besides, in experiment [2] (setting [3]), the “% Activation” value turned out to be 132.8% and the EC50 amounted to 467 nM.

For orientation: EC50 means the concentration needed to bring the measured effect to its halfway point.
